Test results published in patent US20030134884A1, “Neovascularization inhibitors” (priority 2000, published 2003).

What was measured:
[1] = tested on: Human Microvascular Endothelial Cells (HMVE); assay: human microvascular endothelial cell growth inhibitory assay (Alamar Blue); assay type: cell-based; conditions: 72 h, cultured 3 days, 2% bovine fetal serum, Alamar Blue fluorescence, control well = 100%, read-out: IC50 (concentration showing 50% growth inhibitory activity)
Experimental: The angiogenesis inhibitory action of compound (II) and an insulin sensitizer other than compound (II) was determined by a human microvascular endothelial cell growth inhibitory assay method. Human microvascular endothelial cells [Human Microvascular Endothelial Cells (HMVE), (produced by KURABO INDUSTRIES LTD., Japan)] (2×10^4/ml medium, 0.1 ml/well) in MCDB107 medium (GIBCO, US) containing 2% bovine fetal serum was dispensed to a 96 well collagen-coated microplate (produced by SUMITOMO BAKELITE CO., LTD., Japan) and a dimethylformamide (DMF) solution containing various test compounds was diluted and added to the test group. The cells were cultured at 37° C. in 5% CO2 for 3 days. Alamar Blue was added to each well and reacted at 37° C. for 4 hr. Using a fluorometer (Fluoroskan Ascent, produced by LabSystems, US), the fluorescence intensity was measured and the cell count of the well was compared with that of control. Taking the cell count of the control well as 100%, the concentration (IC50) showing 50% growth inhibitory activity was calcualted.

melting point [°C] | SMILES | IC50 [1] [µM]
– | Cc1oc(-c2ccccc2)nc1COc1ccc(CO/N=C(\CCC(=O)O)c2ccccc2)cc1 [compound (7), E-4-[4-(5-methyl-2-phenyl-4-oxazolylmethoxy)benzyloxyimino]-4-phenylbutyric acid] | 23
130 to 131 | Cc1sc(-c2ccccc2)nc1COc1ccc(CCC[C@H]2OC(=O)NC2=O)cc1 [compound (D), (R)-(+)-5-[3-[4-[(5-methyl-2-phenyl-4-thiazolyl)methoxy]phenyl]propyl]-2,4-oxazolidinedione] | 496
– | Cc1c(C)c2c(c(C)c1O)CCC(C)(COc1ccc(CC3SC(=O)NC3=O)cc1)O2 (stereo not shown) [compound (B), 5[[4-[(3,4-dihydro-6-hydroxy-2,5,7,8-tetramethyl-2H-1-benzopyran-2-yl)methoxy]phenyl]methyl]-2,4-thiazolidinedione] | 107
